From ChEMBL document CHEMBL5214906, “Novel Antiplasmodial Compounds Leveraged with Multistage Potency against the Parasite Plasmodium falciparum: In Vitro and In Vivo Evaluations and Pharmacokinetic Studies” (J Med Chem, 2021)
Activity calls are given as the source filed them. No cut-off for these calls is given here.

How the values were obtained:
[1] = Cytotoxicity against human HepG2 cells assessed as reduction in cell viability incubated for 48 hrs by MTT assay; type: toxicity, cell-based; details: read-out: TC50
[2] = test system: Plasmodium falciparum; test: Antiplasmodial activity against Plasmodium falciparum 3D7 infected in human red blood cells assessed as inhibition of parasitemia incubated for 48 hrs by giemsa staining based light microscopic analysis; type: functional, organism-based, Red blood cell; details: 3D7, Erythrocyte
[3] = Therapeutic index, ratio of TC50 for cytotoxicity against human HepG2 cells to IC50 for antiplasmodial activity against Plasmodium falciparum 3D7 infected in human red blood cells; type: toxicity, cell-based; details: read-out: TI
[4] = test system: Plasmodium falciparum; test: Inhibition of Plasmodium falciparum plasmepsin X […] at 1 uM using DABCYL-G-PSFVEAPVRGG-EDANS as substrate by fluorescence based assay relative to control
[5] = test system: Erythrocyte; test: Hemolytic activity against human red blood cells upto 1600 uM incubated for 1 hrs by hemolysis assay; type: toxicity, cell-based
[6] = Inhibition of Plasmodium falciparum Plasmepsin X assessed as inhibition constant using DABCYL-G-PSFVEAPVRGG-EDANS as substrate by fluorescence based assay relative to control
[7] = test system: Plasmodium berghei; test: In vivo antimalarial activity against Plasmodium berghei ANKA strain infected in C57BL/6 mouse assessed as increase in mean survival time at 30 mg/kg, ip administered for 4 days and measured upto 30 days (reference value: 13 days); type: functional; details: time <= 30 day
[8] = test system: Plasmodium berghei; test: Antiplasmodial activity against firefly luciferase-expressing Plasmodium berghei liver stage infected in human Huh-7 cells assessed as inhibition of parasite growth preincubated with cells for 1 hrs followed by parasite infection and […] by bioluminescence assay; type: functional, organism-based
[9] = test system: Plasmodium falciparum; test: Resistance index, ratio of IC50 for antiplasmodial activity against chloroquine-resistant Plasmodium falciparum RKL-9 to IC50 for antiplasmodial activity against Plasmodium falciparum 3D7; type: functional
[10] = test system: Plasmodium falciparum; test: Antiplasmodial activity against chloroquine resistant Plasmodium falciparum RKL-9 infected in human erythrocytes assessed as inhibition of parasitemia by SYBR green-I fluorescence based spectrofluorometric analysis; type: functional, organism-based; details: RKL-9, Erythrocyte
[11] = test system: Plasmodium falciparum; test: Induction of mitochondrial membrane loss in Plasmodium falciparum 3D7 assessed as reduction in red-green ratio at IC50 concentration incubated for 3 hrs by JC-1 staining based spectrofluorometric analysis; type: functional
[12] = test system: Plasmodium falciparum; test: Antiplasmodial activity against Plasmodium falciparum 3D7 infected in human erythrocytes assessed as transition from ring to trophozoite at 1 to 10 uM measured for 56 hrs by giemsa staining based microscopic analysis; type: functional, organism-based; details: Erythrocyte, dose 1-10 µM
[13] = test system: Plasmodium falciparum; test: Antiplasmodial activity against Plasmodium falciparum 3D7 infected in human erythrocytes assessed as delay in maturation of rings at 1 to 10 uM measured for 56 hrs by giemsa staining based microscopic analysis; type: functional, organism-based; details: Erythrocyte, dose 1-10 µM
[14] = test system: Plasmodium falciparum; test: Antiplasmodial activity against Plasmodium falciparum 3D7 infected in human erythrocytes assessed as pyknotic trophozoites development at 1 to 10 uM measured for 56 hrs by giemsa staining based microscopic analysis; type: functional, organism-based; details: Erythrocyte, dose 1-10 µM
[15] = test system: Plasmodium falciparum; test: Antiplasmodial activity against Plasmodium falciparum 3D7 infected in human erythrocytes assessed as accumulation of parasite growth at late trophozoite stage at 1 to 10 uM measured after 56 hrs post-treatment by giemsa staining based microscopic analysis; type: functional, organism-based; details: Erythrocyte, dose 1-10 µM
[16] = test system: Plasmodium berghei; test: In vivo antimalarial activity against Plasmodium berghei ANKA infected in BALB/c mouse assessed as reduction in parasitemia at 50 mg/kg, ip administered for 4 consecutive days and measured on day 8 post-infection by geimsa staining based microscopic analysis relative to control; type: functional; set-up: scale not given: the % may be the effect or the level left; details: time 8 day
[17] = test system: Plasmodium berghei; test: In vivo antimalarial activity against Plasmodium berghei ANKA strain infected in BALB/c mouse assessed as increase in mean survival time at 50 mg/kg, ip administered for 4 days and measured upto 30 days (reference value: 13 days); type: functional; details: time <= 30 day

SMILES	CC50 at 48 h [1]	IC50 [2]	selectivity ratio [3]	inhibition [4]	Activity [5]	Ratio IC50 [9]	IC50 [10]	Ratio [11]	other results
O=C(Cc1ccccc1)N[C@@H](Cc1ccccc1)[C@@H](O)CN1CCN(Cc2ccccc2)CC1	305 µM	> 5 µM	< 61	6.85%	–	–	–	–	–
O=C(N[C@@H](Cc1ccccc1)[C@@H](O)CN1CCN(Cc2ccccc2)CC1)c1cnc2ccccc2c1	100 µM	0.25 µM	400	11.7%	Non-Toxic	–	–	–	–
CN1CCN(Cc2ccc(C(=O)N[C@@H](Cc3ccccc3)[C@@H](O)CN3CCN(Cc4ccccc4)CC3)cc2)CC1	860 µM	0.97 µM	887	38.6%	–	–	–	–	Ki [6]: 0.91 µM
C[C@H]1[C@H](OC(=O)CCC(=O)O)O[C@@H]2O[C@@]3(C)CC[C@H]4[C@H](C)CC[C@@H]1[C@@]24OO3 [ARTESUNATE]	–	–	–	–	–	–	–	–	MST [7]: 24 days
O=C(Cc1cccc(C(F)(F)F)c1)N[C@@H](Cc1ccccc1)[C@@H](O)CN1CCN(Cc2ccccc2)CC1	990 µM	1.1 µM	900	13.7%	–	–	–	–	–
O=C(CCc1ccc(Br)cc1)N[C@@H](Cc1ccccc1)[C@@H](O)CN1CCN(Cc2ccccc2)CC1	129 µM	0.51 µM	252	21.5%	–	–	–	–	IC50 [8]: 3.97 µM
Cc1ccc(OCC(=O)N[C@@H](Cc2ccccc2)[C@@H](O)CN2CCN(Cc3ccccc3)CC2)cc1	200 µM	0.2 µM	1000	24.5%	–	–	–	–	–
O=C(N[C@@H](Cc1ccccc1)[C@@H](O)CN1CCN(Cc2ccccc2)CC1)c1cnccn1	1000 µM	1.26 µM	791	21%	Non-Toxic	1	1.26 µM	4.07	–
O=C(N[C@@H](Cc1ccccc1)[C@@H](O)CN1CCN(Cc2ccccc2)CC1)c1ccc(N2CCOCC2)cc1	317 µM	0.21 µM	1450	28.4%	Non-Toxic	3.93	0.86 µM	3.48	Activity [12]: Active; Activity [13]: Active; Activity [14]: Active; Activity [15]: Active; Activity [16]: 50%; MST [17]: 15 days
CCC(C(=O)N[C@@H](Cc1ccccc1)[C@@H](O)CN1CCN(Cc2ccccc2)CC1)c1ccccc1 (stereo not given in full)	1350 µM	0.95 µM	1420	15.5%	–	–	–	–	–
Cc1cnc(C(=O)N[C@@H](Cc2ccccc2)[C@@H](O)CN2CCN(Cc3ccccc3)CC2)cn1	285 µM	1.22 µM	232	8.79%	Non-Toxic	0.65	0.79 µM	4.28	–
CN1CCN(c2ccc(C(=O)N[C@@H](Cc3ccccc3)[C@@H](O)CN3CCN(Cc4ccccc4)CC3)cc2)CC1	189 µM	1 µM	189	34%	–	–	–	–	–
O=C(N[C@@H](Cc1ccccc1)[C@@H](O)CN1CCN(Cc2ccccc2)CC1)c1ccc(F)cc1	267 µM	0.41 µM	636	0.92%	–	1.73	0.72 µM	3.73	Activity [13]: Active; Activity [14]: Active
